# In ChEMBL document CHEMBL3885881, “DrugMatrix”:
# Organism: Rattus norvegicus
# Test: DrugMatrix - Regimen: Daily Repeat
# Type: toxicity, organism-based, Sprague-Dawley
# Set-up: regimen Daily Repeat, gender Male, age 6-8 weeks
# Details: in vivo, sc, route subcutaneous, […]; for ABSOLUTE BASOPHIL / ABSOLUTE EOSINOPHIL / ABSOLUTE LYMPHOCYTE / ABSOLUTE MONOCYTE / ABSOLUTE SEGMENTED NEUTROPHIL / BASOPHIL / EOSINOPHIL / ERYTHROCYTE COUNT / HEMATOCRIT / HEMOGLOBIN / LEUKOCYTE COUNT / LYMPHOCYTE / MEAN CORPUSCULAR HEMOGLOBIN / MEAN CORPUSCULAR HEMOGLOBIN CONCENTRATION / MEAN CORPUSCULAR VOLUME / MONOCYTE / NEUTROPHIL / NUCLEATED RED BLOOD CELLS / PLATELET COUNT: tissue Blood; for ALANINE AMINOTRANSFERASE / ALBUMIN / ALKALINE PHOSPHATASE / ASPARTATE AMINOTRANSFERASE / BLOOD UREA NITROGEN / CARBON DIOXIDE / CHLORIDE / CHOLESTEROL / CREATINE PHOSPHOKINASE / CREATININE / GLUCOSE / LACTATE DEHYDROGENASE / LIPASE / PHOSPHORUS / POTASSIUM / SODIUM / TOTAL BILIRUBIN / TOTAL PROTEIN / URIC ACID: tissue Plasma
# [1] = 0 mg/kg, 72 h, dose level Control, time 3 day
# [2] = 0 mg/kg, 120 h, dose level Control, time 5 day
# [3] = 50 mg/kg, 72 h, dose level Low, time 3 day
structure (smiles),measurement,setting,value
CCCCOC(=O)c1ccc(N)cc1 [BUTAMBEN],ABSOLUTE BASOPHIL,[1],0 CELLS/uL
same,ABSOLUTE EOSINOPHIL,[1],42.67 CELLS/uL
same,ABSOLUTE LYMPHOCYTE,[1],10202 CELLS/uL
same,ABSOLUTE MONOCYTE,[1],261.5 CELLS/uL
same,ABSOLUTE SEGMENTED NEUTROPHIL,[1],2193.83 CELLS/uL
same,BASOPHIL,[1],0%
same,EOSINOPHIL,[1],0.33%
same,ERYTHROCYTE COUNT,[1],5.63 x10E6/uL
same,HEMATOCRIT,[1],35.35%
same,HEMOGLOBIN,[1],13.07 G/DL
same,LEUKOCYTE COUNT,[1],12.7 x10E3/uL
same,LYMPHOCYTE,[1],81.17%
same,MEAN CORPUSCULAR HEMOGLOBIN,[1],23.23 pg
same,MEAN CORPUSCULAR HEMOGLOBIN CONCENTRATION,[1],36.97 G/DL
same,MEAN CORPUSCULAR VOLUME,[1],62.82 fL
same,MONOCYTE,[1],2%
same,NEUTROPHIL,[1],16.5%
same,NUCLEATED RED BLOOD CELLS,[1],0 /100WBC
same,PLATELET COUNT,[1],1180.33 x10E3/uL
same,ALANINE AMINOTRANSFERASE,[1],48.67 u/L
same,ALBUMIN,[1],4.08 G/DL
same,ALKALINE PHOSPHATASE,[1],360.67 u/L
same,ASPARTATE AMINOTRANSFERASE,[1],85.5 u/L
same,BLOOD UREA NITROGEN,[1],17.83 mg/dL
same,CARBON DIOXIDE,[1],26.17 mmol/L
same,CHLORIDE,[1],101.83 MEQ/L
same,CHOLESTEROL,[1],71 mg/dL
same,CREATINE PHOSPHOKINASE,[1],515.17 u/L
same,CREATININE,[1],0.22 mg/dL
same,GLUCOSE,[1],192.5 mg/dL
same,LACTATE DEHYDROGENASE,[1],214.67 u/L
same,LIPASE,[1],8.5 u/L
same,PHOSPHORUS,[1],12.95 mg/dL
same,POTASSIUM,[1],6.39 MEQ/L
same,SODIUM,[1],142.38 MEQ/L
same,TOTAL BILIRUBIN,[1],0.18 mg/dL
same,TOTAL PROTEIN,[1],5.95 G/DL
same,URIC ACID,[1],1.83 mg/dL
same,ABSOLUTE BASOPHIL,[2],0 CELLS/uL
same,ABSOLUTE EOSINOPHIL,[2],188.5 CELLS/uL
same,ABSOLUTE LYMPHOCYTE,[2],12360.83 CELLS/uL
same,ABSOLUTE MONOCYTE,[2],64.33 CELLS/uL
same,ABSOLUTE SEGMENTED NEUTROPHIL,[2],1986.33 CELLS/uL
same,BASOPHIL,[2],0%
same,EOSINOPHIL,[2],1.33%
same,ERYTHROCYTE COUNT,[2],5.52 x10E6/uL
same,HEMATOCRIT,[2],35.82%
same,HEMOGLOBIN,[2],13.25 G/DL
same,LEUKOCYTE COUNT,[2],14.6 x10E3/uL
same,LYMPHOCYTE,[2],84.5%
same,MEAN CORPUSCULAR HEMOGLOBIN,[2],24.05 pg
same,MEAN CORPUSCULAR HEMOGLOBIN CONCENTRATION,[2],36.98 G/DL
same,MEAN CORPUSCULAR VOLUME,[2],64.97 fL
same,MONOCYTE,[2],0.5%
same,NEUTROPHIL,[2],13.67%
same,NUCLEATED RED BLOOD CELLS,[2],0 /100WBC
same,PLATELET COUNT,[2],1297.83 x10E3/uL
same,ALANINE AMINOTRANSFERASE,[2],51.17 u/L
same,ALBUMIN,[2],4.08 G/DL
same,ALKALINE PHOSPHATASE,[2],393.17 u/L
same,ASPARTATE AMINOTRANSFERASE,[2],111 u/L
same,BLOOD UREA NITROGEN,[2],18.17 mg/dL
same,CARBON DIOXIDE,[2],25 mmol/L
same,CHLORIDE,[2],105.17 MEQ/L
same,CHOLESTEROL,[2],65.5 mg/dL
same,CREATINE PHOSPHOKINASE,[2],911.5 u/L
same,CREATININE,[2],0.21 mg/dL
same,GLUCOSE,[2],183 mg/dL
same,LACTATE DEHYDROGENASE,[2],189 u/L
same,LIPASE,[2],8.33 u/L
same,PHOSPHORUS,[2],12.78 mg/dL
same,POTASSIUM,[2],6.05 MEQ/L
same,SODIUM,[2],144.57 MEQ/L
same,TOTAL BILIRUBIN,[2],0.25 mg/dL
same,TOTAL PROTEIN,[2],5.83 G/DL
same,URIC ACID,[2],1.58 mg/dL
same,ABSOLUTE BASOPHIL,[3],0 CELLS/uL
same,ABSOLUTE EOSINOPHIL,[3],143.67 CELLS/uL
same,ABSOLUTE LYMPHOCYTE,[3],12216.67 CELLS/uL
same,ABSOLUTE MONOCYTE,[3],393.33 CELLS/uL
same,ABSOLUTE SEGMENTED NEUTROPHIL,[3],2079.67 CELLS/uL
same,BASOPHIL,[3],0%
same,EOSINOPHIL,[3],1%
same,ERYTHROCYTE COUNT,[3],5.53 x10E6/uL
same,HEMATOCRIT,[3],33.47%
same,HEMOGLOBIN,[3],12.13 G/DL
same,LEUKOCYTE COUNT,[3],14.83 x10E3/uL
same,LYMPHOCYTE,[3],82.33%
same,MEAN CORPUSCULAR HEMOGLOBIN,[3],21.93 pg
same,MEAN CORPUSCULAR HEMOGLOBIN CONCENTRATION,[3],36.23 G/DL
same,MEAN CORPUSCULAR VOLUME,[3],60.5 fL
same,MONOCYTE,[3],2.67%
same,NEUTROPHIL,[3],14%
same,NUCLEATED RED BLOOD CELLS,[3],0 /100WBC
same,PLATELET COUNT,[3],1210 x10E3/uL
same,ALANINE AMINOTRANSFERASE,[3],56.33 u/L
same,ALBUMIN,[3],3.9 G/DL
same,ALKALINE PHOSPHATASE,[3],352 u/L
same,ASPARTATE AMINOTRANSFERASE,[3],93.33 u/L
same,BLOOD UREA NITROGEN,[3],15.67 mg/dL
same,CARBON DIOXIDE,[3],27 mmol/L
same,CHLORIDE,[3],103.67 MEQ/L
same,CHOLESTEROL,[3],75.33 mg/dL
same,CREATINE PHOSPHOKINASE,[3],408 u/L
same,CREATININE,[3],0.24 mg/dL
same,GLUCOSE,[3],178.67 mg/dL
same,LACTATE DEHYDROGENASE,[3],150.67 u/L
same,LIPASE,[3],8.33 u/L
same,PHOSPHORUS,[3],12.53 mg/dL
same,POTASSIUM,[3],5.89 MEQ/L
same,SODIUM,[3],144.57 MEQ/L
same,TOTAL BILIRUBIN,[3],0.2 mg/dL
same,TOTAL PROTEIN,[3],5.57 G/DL
same,URIC ACID,[3],1.43 mg/dL
